Laboratory results published in PubChem BioAssay AID330 (DTP/NCI, 2004).
Where “and” joins values, the source holds several entries; their conditions need not be identical. Equal values may be shown once. Inconclusive results and toxic doses are left out. The calls were made as follows: active = survival T/C of 150% or more; inactive = T/C below 125% in these data.

Tested on: P388 leukemia ip, CD2F1 mice, survival T/C
Assay: NCI In Vivo Anticancer Drug Screen. Data for tumor model P388 Leukemia (intraperitoneal) in CD2F1 (CDF1) mice
Settings: endpoint: median survival time, higher = longer survival
Procedure, shortened: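 Mice carrying the transplanted tumor received test compound or vehicle. Survival was recorded in each group, and the value is the treated-group measurement divided by that of the vehicle-treated control group.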

Measured: T/C

O=NN(CCCl)C(=O)NCCCl
inactive: dose: 16.0 mg/kg/injection, schedule: Q01DX009 (ip), vehicle: other 111 % of control and 120 % of control | dose: 16.0 mg/kg/injection, schedule: Q01DX009 (ip), vehicle: saline with Tween-80 118 % of control | dose: 30.0 mg/kg/injection, schedule: Q01DX009 (ip), vehicle: saline 110 % of control | dose: 64.0 mg/kg/injection, schedule: Q01DX001 (ip), vehicle: saline with Tween-80 107 % of control and 58 % of control | dose: 64.0 mg/kg/injection, schedule: Q01DX001 (oral), vehicle: saline with Tween-80 118 % of control | dose: 128.0 mg/kg/injection, schedule: Q01DX001 (ip), vehicle: Klucel (hydroxypropylcellulose) (HPC) 98 % of control | dose: 128.0 mg/kg/injection, schedule: Q01DX001 (ip), vehicle: saline with Tween-80 98 % of control and 58 % of control | dose: 128.0 mg/kg/injection, schedule: Q01DX001 (ip), vehicle: suspension in saline 107 % of control
active: dose: 10.8 mg/kg/injection, schedule: Q04DX003 (ip), vehicle: saline + alcohol 295 % of control | dose: 12.5 mg/kg/injection, schedule: Q01DX005 (ip), vehicle: saline with Tween-80 275 % of control and 315 % of control | dose: 15.0 mg/kg/injection, schedule: Q01DX001 (iv), vehicle: saline + alcohol 222 % of control | dose: 15.0 mg/kg/injection, schedule: Q01DX009 (ip), vehicle: saline 300 % of control | dose: 15.0 mg/kg/injection, schedule: Q04DX003 (ip), vehicle: saline + alcohol 336 % of control | dose: 15.0 mg/kg/injection, schedule: Q04DX003 (ip), vehicle: saline 355 % of control | dose: 16.0 mg/kg/injection, schedule: Q01DX001 (ip), vehicle: Klucel (hydroxypropylcellulose) (HPC) 210 % of control | dose: 16.0 mg/kg/injection, schedule: Q01DX001 (ip), vehicle: saline with Tween-80 192 % of control and 240 % of control | dose: 16.0 mg/kg/injection, schedule: Q01DX001 (ip), vehicle: suspension in saline 186 % of control | dose: 16.0 mg/kg/injection, schedule: Q01DX001 (ip), vehicle: water 429 % of control | dose: 16.0 mg/kg/injection, schedule: Q01DX001 (oral), vehicle: saline with Tween-80 163 % of control | dose: 16.0 mg/kg/injection, schedule: Q01DX005 (ip), vehicle: saline + alcohol 409 % of control | dose: 18.0 mg/kg/injection, schedule: Q04DX002 (ip), vehicle: saline + alcohol 250 % of control and 254 % of control | dose: 18.0 mg/kg/injection, schedule: Q04DX003 (ip), vehicle: saline + alcohol 419 % of control | dose: 20.0 mg/kg/injection, schedule: Q01DX001 (ip), vehicle: Klucel (hydroxypropylcellulose) (HPC) 241 % of control | dose: 20.0 mg/kg/injection, schedule: Q04DX003 (ip), vehicle: saline + alcohol 165 % of control | dose: 20.0 mg/kg/injection, schedule: Q04DX003 (iv), vehicle: saline + alcohol 291 % of control | dose: 24.0 mg/kg/injection, schedule: Q01DX001 (ip), vehicle: saline 230 % of control | dose: 25.0 mg/kg/injection, schedule: Q01DX005 (ip), vehicle: saline with Tween-80 184 % of control | dose: 25.0 mg/kg/injection, schedule: Q04DX003 (ip), vehicle: saline + alcohol 233 % of control | dose: 30.0 mg/kg/injection, schedule: Q01DX001 (iv), vehicle: saline + alcohol 352 % of control | dose: 30.0 mg/kg/injection, schedule: Q04DX002 (ip), vehicle: saline + alcohol 416 % of control and 441 % of control | dose: 30.0 mg/kg/injection, schedule: Q04DX003 (ip), vehicle: saline + alcohol 166 % of control | dose: 30.0 mg/kg/injection, schedule: Q04DX003 (ip), vehicle: saline 441 % of control | dose: 31.25 mg/kg/injection, schedule: Q01DX001 (ip), vehicle: saline with Tween-80 275 % of control | dose: 32.0 mg/kg/injection, schedule: Q01DX001 (ip), vehicle: Klucel (hydroxypropylcellulose) (HPC) 269 % of control | dose: 32.0 mg/kg/injection, schedule: Q01DX001 (ip), vehicle: saline with Tween-80 272 % of control and 588 % of control | dose: 32.0 mg/kg/injection, schedule: Q01DX001 (ip), vehicle: saline 606 % of control | dose: 32.0 mg/kg/injection, schedule: Q01DX001 (ip), vehicle: suspension in saline 289 % of control | dose: 32.0 mg/kg/injection, schedule: Q01DX001 (ip), vehicle: water 429 % of control | dose: 32.0 mg/kg/injection, schedule: Q01DX001 (oral), vehicle: saline with Tween-80 227 % of control | dose: 40.0 mg/kg/injection, schedule: Q01DX001 (ip), vehicle: Klucel (hydroxypropylcellulose) (HPC) 267 % of control | dose: 62.5 mg/kg/injection, schedule: Q01DX001 (ip), vehicle: saline with Tween-80 275 % of control and 297 % of control | dose: 64.0 mg/kg/injection, schedule: Q01DX001 (ip), vehicle: suspension in saline 161 % of control | dose: 80.0 mg/kg/injection, schedule: Q01DX001 (ip), vehicle: Klucel (hydroxypropylcellulose) (HPC) 267 % of control
